According to the NIST ThermoML archive (doi:10.1016/j.fluid.2016.06.054):
± gives the expanded uncertainty stated by the source.

Assay: molar heat capacity at constant pressure
Details: Liquid, Flow calorimetry

CC(=O)[O-].CCCCCCn1cc[n+](C)c1 [3-hexyl-1-methylimidazolium acetate]
Details	molar heat capacity at constant pressure [J/K/mol]
308.3 K, 100 kPa	446.98 ± 9
308.6 K, 3940 kPa	445.51 ± 8.9
308.7 K, 7930 kPa	444.39 ± 8.9
308.7 K, 11720 kPa	442.98 ± 8.9
308.8 K, 16020 kPa	442.23 ± 8.9
317.5 K, 100 kPa	451.85 ± 9.1
317.5 K, 4020 kPa	450.18 ± 9
317.6 K, 8080 kPa	449.27 ± 9
317.8 K, 12320 kPa	448.43 ± 9
317.9 K, 16210 kPa	447.35 ± 9
327.4 K, 100 kPa	455.72 ± 9.1
327.5 K, 4030 kPa	454.06 ± 9.1
327.7 K, 8190 kPa	452.63 ± 9.1
327.8 K, 12480 kPa	451.08 ± 9
327.8 K, 16220 kPa	450.18 ± 9
337.2 K, 100 kPa	460.35 ± 9.2
337.3 K, 4120 kPa	458.97 ± 9.2
337.7 K, 8030 kPa	457.41 ± 9.2
337.8 K, 12180 kPa	456.32 ± 9.2
338 K, 16110 kPa	454.87 ± 9.1
345.9 K, 100 kPa	466.57 ± 9.4
346.2 K, 4120 kPa	465.32 ± 9.3
346.3 K, 8170 kPa	463.82 ± 9.3
346.5 K, 12410 kPa	462.14 ± 9.3
346.8 K, 16130 kPa	460.75 ± 9.2
355.3 K, 100 kPa	472.17 ± 9.5
355.6 K, 4120 kPa	470.85 ± 9.4
355.7 K, 8010 kPa	469.29 ± 9.4
355.9 K, 12430 kPa	468.34 ± 9.4
356.1 K, 16130 kPa	466.81 ± 9.4
365 K, 7990 kPa	476.86 ± 9.6
365.1 K, 12180 kPa	475.05 ± 9.5
365.4 K, 16100 kPa	473.57 ± 9.5
365.7 K, 100 kPa	479.8 ± 9.6
365.8 K, 4110 kPa	478.25 ± 9.6
374 K, 100 kPa	485.51 ± 9.7
374.2 K, 4020 kPa	483.86 ± 9.7
374.4 K, 8100 kPa	482.22 ± 9.7
374.7 K, 12380 kPa	480.71 ± 9.6
375 K, 16130 kPa	479.24 ± 9.6
383.9 K, 100 kPa	491.39 ± 9.8
384.1 K, 4100 kPa	490.53 ± 9.8
384.3 K, 7960 kPa	489.08 ± 9.8
384.4 K, 12530 kPa	487.97 ± 9.8
384.5 K, 16010 kPa	486.3 ± 9.8
394.9 K, 100 kPa	496.24 ± 9.9
395.1 K, 4070 kPa	494.51 ± 9.9
395.1 K, 8360 kPa	493.11 ± 9.9
395.2 K, 12770 kPa	491.91 ± 9.9
395.4 K, 16400 kPa	490.48 ± 9.8
